Data taken from patent US20250275540A1, “USE OF PROTOPORPHYRINOGEN OXIDASE” (BEIJING DABEINONG BIOTECHNOLOGY CO., LTD., priority 2022, published 2025).

Tested on: transgenic maize plants
Test: Detection of the herbicide tolerance of the transgenic maize plants
Assay type: in vivo
Conditions: for The grade of pesticide damage/plant: 0 / The grade of pesticide damage/plant: 1 / The grade of pesticide damage/plant: 2 / The grade of pesticide damage/plant: 3: 7 DAT
Text: The transformed Arabidopsis thaliana T1 plants were initially selected using glufosinate herbicide. The Arabidopsis thaliana T1 plants (PPOA-01) into which the PPOA-01 nucleotide sequence was introduced, the Arabidopsis thaliana T1 plants (PPOB-01) into which the PPOB-01 nucleotide sequence was introduced, the Arabidopsis thaliana T1 plants (PPOC-01) into which the PPOC-01 nucleotide sequence was introduced, the Arabidopsis thaliana T1 plants (PPOD-01) into which the PPOD-01 nucleotide sequence was introduced, the Arabidopsis thaliana T1 plants (PPOE-01) into which the PPOE-01 nucleotide sequence was introduced, the Arabidopsis thaliana T1 plants (PPOF-01) into which the PPOF-01 nucleotide sequence was introduced, the Arabidopsis thaliana T1 plants (PPO-AP-01) into which the PPO-AP-01 nucleotide sequence was introduced, and the Arabidopsis thaliana T1 plants (control vector) into which the control vector was introduced, the wild-type Arabidopsis thaliana plants (CK) (with 24 plants being included in each genotype) (18 days after sowing) were sprayed with saflufenacil at three concentrations (25 g ai/ha (one-fold field concentration, 1×), 100 g ai/ha (four-fold field concentration, 4×), and 0 g ai/ha (water, 0×)), oxyfluorfen at three concentrations (180 g ai/ha (one-fold field concentration, 1×), 720 g ai/ha (four-fold field concentration, 4×), and 0 g ai/ha (water, 0×)), and flumioxazin at three concentrations (60 g ai/ha (one-fold field concentration, 1×), 240 g ai/ha (four-fold field concentration, 4×), and 0 g ai/ha (water, 0×) to determine the tolerance of Arabidopsis thaliana to the herbicides. After 7 days of spraying (7 DAT), the damage level of each plant caused by the herbicide was evaluated according to the average of the damage levels (%) of plants (the average of the damage levels (%) of plants=the injured leaf area/the total leaf area×100%), i.e., the grade of pesticide damage: grade 0 means that the growth status of plants is essentially consistent with those sprayed with the blank solvent (water); grade 1 means that the average of the damage levels of plants is less than 10%; grade 2 means that the average of the damage levels of plants is greater than 10%; and grade 3 means that the average of the damage levels of plants is 100%. The plants having a growth status falling within grades 0 and 1 are classified as highly resistant plants; those having a growth status falling within grade 2 are classified as poorly resistant plants; and those having a growth status falling within grade 3 are classified as non-resistant plants.
The maize plants into which the PPOA-02 nucleotide sequence was introduced, the maize plants into which the PPOB-02 nucleotide sequence was introduced, the maize plants into which the PPOC-02 nucleotide sequence was introduced, the maize plants into which the PPOD-02 nucleotide sequence was introduced, the maize plants into which the PPOE-02 nucleotide sequence was introduced, the maize plants into which the PPOF-02 nucleotide sequence was introduced, the maize plants into which the PPO-AP-02 nucleotide sequence was introduced, the maize plants (control vector) into which the control vector was introduced, and the wild-type maize plants (CK) (with 16 plants being included in each genotype) (18 days after sowing) were taken and sprayed with saflufenacil at three concentrations (50 g ai/ha (two-fold field concentration, 2×), 100 g ai/ha (four-fold field concentration, 4×), and 0 g ai/ha (water, 0×)), oxyfluorfen at three concentrations (360 g ai/ha (two-fold field concentration, 2×), 720 g ai/ha (four-fold field concentration, 4×), and 0 g ai/ha (water, 0×), and flumioxazin at three concentrations (120 g ai/ha (two-fold field concentration, 2×), 240 g ai/ha (four-fold field concentration, 4×), and 0 g ai/ha (water, 0×) to determine the tolerance of maize plants to the herbicides. […]

[1] = genotype Control vector, 360 g ai/ha
[2] = genotype Control vector, 720 g ai/ha
[3] = genotype PPO-AP-02, 360 g ai/ha
[4] = genotype PPO-AP-02, 720 g ai/ha

## CCOc1cc(Oc2ccc(C(F)(F)F)cc2Cl)ccc1[N+](=O)[O-] [oxyfluorfen, 2-chloro-1-(3-ethoxy-4-nitrophenoxy)-4-trifluoromethylbenzene]
Genotype CK, 360 g ai/ha
  The grade of pesticide damage/plant: 0: 0 plant
  The grade of pesticide damage/plant: 1: 0 plant
  The grade of pesticide damage/plant: 2: 0 plant
  The grade of pesticide damage/plant: 3: 16 plant
Genotype CK, 720 g ai/ha
  The grade of pesticide damage/plant: 0: 0 plant
  The grade of pesticide damage/plant: 1: 0 plant
  The grade of pesticide damage/plant: 2: 0 plant
  The grade of pesticide damage/plant: 3: 16 plant
[1]
  The grade of pesticide damage/plant: 0: 0 plant
  The grade of pesticide damage/plant: 1: 0 plant
  The grade of pesticide damage/plant: 2: 0 plant
  The grade of pesticide damage/plant: 3: 16 plant
[2]
  The grade of pesticide damage/plant: 0: 0 plant
  The grade of pesticide damage/plant: 1: 0 plant
  The grade of pesticide damage/plant: 2: 0 plant
  The grade of pesticide damage/plant: 3: 16 plant
[3]
  The grade of pesticide damage/plant: 0: 0 plant
  The grade of pesticide damage/plant: 1: 0 plant
  The grade of pesticide damage/plant: 2: 8 plant
  The grade of pesticide damage/plant: 3: 8 plant
[4]
  The grade of pesticide damage/plant: 0: 0 plant
  The grade of pesticide damage/plant: 1: 0 plant
  The grade of pesticide damage/plant: 2: 0 plant
  The grade of pesticide damage/plant: 3: 16 plant
Genotype PPO-AP-02, four-fold field concentration
  tolerance to the herbicide (in words): no tolerance
Genotype PPO-AP-02, two-fold field concentration
  share of the plants that exhibited no tolerance: about 50%
Genotype PPOA-02, 360 g ai/ha
  The grade of pesticide damage/plant: 0: 16 plant
  The grade of pesticide damage/plant: 1: 0 plant
  The grade of pesticide damage/plant: 2: 0 plant
  The grade of pesticide damage/plant: 3: 0 plant
Genotype PPOA-02, 720 g ai/ha
  The grade of pesticide damage/plant: 0: 16 plant
  The grade of pesticide damage/plant: 1: 0 plant
  The grade of pesticide damage/plant: 2: 0 plant
  The grade of pesticide damage/plant: 3: 0 plant
Genotype PPOB-02, 360 g ai/ha
  The grade of pesticide damage/plant: 0: 16 plant
  The grade of pesticide damage/plant: 1: 0 plant
  The grade of pesticide damage/plant: 2: 0 plant
  The grade of pesticide damage/plant: 3: 0 plant
Genotype PPOB-02, 720 g ai/ha
  The grade of pesticide damage/plant: 0: 16 plant
  The grade of pesticide damage/plant: 1: 0 plant
  The grade of pesticide damage/plant: 2: 0 plant
  The grade of pesticide damage/plant: 3: 0 plant
Genotype PPOC-02, 360 g ai/ha
  The grade of pesticide damage/plant: 0: 16 plant
  The grade of pesticide damage/plant: 1: 0 plant
  The grade of pesticide damage/plant: 2: 0 plant
  The grade of pesticide damage/plant: 3: 0 plant
Genotype PPOC-02, 720 g ai/ha
  The grade of pesticide damage/plant: 0: 16 plant
  The grade of pesticide damage/plant: 1: 0 plant
  The grade of pesticide damage/plant: 2: 0 plant
  The grade of pesticide damage/plant: 3: 0 plant
Genotype PPOD-02, 360 g ai/ha
  The grade of pesticide damage/plant: 0: 16 plant
  The grade of pesticide damage/plant: 1: 0 plant
  The grade of pesticide damage/plant: 2: 0 plant
  The grade of pesticide damage/plant: 3: 0 plant
Genotype PPOD-02, 720 g ai/ha
  The grade of pesticide damage/plant: 0: 16 plant
  The grade of pesticide damage/plant: 1: 0 plant
  The grade of pesticide damage/plant: 2: 0 plant
  The grade of pesticide damage/plant: 3: 0 plant
Genotype PPOE-02, 360 g ai/ha
  The grade of pesticide damage/plant: 0: 16 plant
  The grade of pesticide damage/plant: 1: 0 plant
  The grade of pesticide damage/plant: 2: 0 plant
  The grade of pesticide damage/plant: 3: 0 plant
Genotype PPOE-02, 720 g ai/ha
  The grade of pesticide damage/plant: 0: 15 plant
  The grade of pesticide damage/plant: 1: 1 plant
  The grade of pesticide damage/plant: 2: 0 plant
  The grade of pesticide damage/plant: 3: 0 plant
Genotype PPOF-02, 360 g ai/ha
  The grade of pesticide damage/plant: 0: 16 plant
  The grade of pesticide damage/plant: 1: 0 plant
  The grade of pesticide damage/plant: 2: 0 plant
  The grade of pesticide damage/plant: 3: 0 plant
Genotype PPOF-02, 720 g ai/ha
  The grade of pesticide damage/plant: 0: 16 plant
  The grade of pesticide damage/plant: 1: 0 plant
  The grade of pesticide damage/plant: 2: 0 plant
  The grade of pesticide damage/plant: 3: 0 plant
Genotypes PPOA-02 to PPOF-02, four-fold field concentration
  tolerance to the herbicide (in words): high-resistant tolerance
Genotypes PPOA-02 to PPOF-02, two-fold field concentration
  tolerance to the herbicide (in words): high-resistant tolerance
